The values that follow come from patent US12552753B2, “Methods and compositions for targeting Tregs using CCR8 inhibitors” (Nanjing Immunophage Biomedical Co., Ltd., priority 2020, dated 2026).

Sequence of CCR8 (P51685 whole entry, the tested form may be a part): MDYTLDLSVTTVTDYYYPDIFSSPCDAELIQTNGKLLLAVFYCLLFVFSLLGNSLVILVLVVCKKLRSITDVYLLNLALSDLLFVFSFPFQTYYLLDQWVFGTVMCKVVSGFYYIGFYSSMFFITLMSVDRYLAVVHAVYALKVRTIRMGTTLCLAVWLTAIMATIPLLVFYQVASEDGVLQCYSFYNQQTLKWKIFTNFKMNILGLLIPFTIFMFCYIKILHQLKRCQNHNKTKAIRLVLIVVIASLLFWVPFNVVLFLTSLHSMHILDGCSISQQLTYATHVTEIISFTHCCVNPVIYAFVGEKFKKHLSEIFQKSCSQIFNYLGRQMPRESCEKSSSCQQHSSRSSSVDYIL

One test concerns the target CCR8 (Homo sapiens, UniProt P51685). Kind of test: Tango assay (Tango-CCR8-Gal4-CHO-K1 cells, CCL1-stimulated, ONE-Glo luminescence). The following applies: Tango Assay IC50, Inhibition of CCR8 Tango cell in vitro.
As a reminder, the IC50 is the concentration at which inhibition is half-maximal. `Cc1ccccc1C(=O)Nc1ccc(S(=O)(=O)Nc2ccc3c(c2)C(N(C)C(=O)CN(C)C)CCC3)c2ccccc12` (stereo not shown) [Compound 97, N-(4-(N-(8-(2-(dimethylamino)-N-methylacetamido)-5,6,7,8-tetrahydronaphthalen-2-yl)sulfamoyl)naphthalen-1-yl)-2-methylbenzamide] registered an IC50 of more than 10 µM.

The compound `Cc1ccccc1C(=O)Nc1ccc(S(=O)(=O)Nc2ccc3c(c2)C(N(C)C(=O)CN(C)C)CC3)c2ccccc12` (stereo not shown) [Compound 98, N-(4-(N-(3-(2-(dimethylamino)-N-methylacetamido)-2,3-dihydro-1H-inden-5-yl)sulfamoyl)naphthalen-1-yl)-2-methylbenzamide] had an IC50 of more than 10 µM.

In turn, `Cc1ccccc1C(=O)Nc1ccc(S(=O)(=O)Nc2ccc3c(c2)C(N(C)CCN(C)C)CCC3)c2ccccc12` (stereo not shown) [Compound 99, N-(4-(N-(8-((2-(dimethylamino)ethyl)(methyl)amino)-5,6,7,8-tetrahydronaphthalen-2-yl)sulfamoyl)naphthalen-1-yl)-2-methylbenzamide] returned an IC50 of more than 10 µM.

`CN1CCCN(C(=O)C23CC(NS(=O)(=O)c4ccc5ccccc5c4)(C2)C3)CC1` [Compound 100, N-(3-(4-methyl-1,4-diazepane-1-carbonyl)bicyclo[1.1.1]pentan-1-yl)naphthalene-2-sulfonamide] gave a half-inhibitory concentration (IC50) of more than 10 µM.

`CC(C)(C)OC(=O)N1CCC(NS(=O)(=O)c2ccc(-c3nc4ccccc4[nH]3)cc2)CC1` [Compound 102, tert-butyl 4-(4-(1H-benzo[d]imidazol-2-yl)phenylsulfonamido) piperidine-1-carboxylate]: the IC50 is more than 10 µM.

The compound `CN1CCN(C(=O)N2CCC(NS(=O)(=O)c3ccc(-c4nc5ccccc5[nH]4)cc3)CC2)CC1` [Compound 103, 4-(1H-benzo[d]imidazol-2-yl)-N-(1-(4-methylpiperazine-1-carbonyl)piperidin-4-yl)benzenesulfonamide] displayed a half-maximal inhibitory concentration (IC50) of 0.31 µM.

Turning to `C[C@H](N)C(=O)N1CCC(NS(=O)(=O)c2ccc(-c3nc4ccccc4[nH]3)cc2)CC1` [Compound 104, (S)-N-(1-(2-aminopropanoyl)piperi-din-4-yl)-4-(1H-benzo[d]imidazol-2-yl)benzenesulfonamide], half-maximal inhibition (IC50) was put at 0.258 µM.

Consider `CCCC(=O)N1CCC(NS(=O)(=O)c2ccc(-c3nc4ccccc4[nH]3)cc2)CC1` [Compound 106, 4-(1H-benzo[d]imidazol-2-yl)-N-(1-butyrylpiperidin-4-yl)benzenesulfonamide], for which the IC50 was determined as 1.14 µM.

Compound `CCCC(=O)N1CCC(NS(=O)(=O)c2ccc(-c3nc4ccccc4[nH]3)c3ccccc23)CC1` [Compound 107, 4-(1H-benzo[d]imidazol-2-yl)-N-(1-butyrylpiperidin-4-yl)naphthalene-1-sulfonamide] registered an IC50 of 0.913 µM.

`O=S(=O)(NC1CCCCC1)c1ccc(-c2nc3ccccc3[nH]2)cc1` [Compound 108, 4-(1H-benzo[d]imidazol-2-yl)-N-cyclohexylbenzenesulfon-amide]: the half-maximal inhibitory concentration (IC50) was more than 10 µM.

Consider `O=S(=O)(NC1CCOCC1)c1ccc(-c2nc3ccccc3[nH]2)cc1` [Compound 109, 4-(1H-benzo[d]imidazol-2-yl)-N-(tetrahydro-2H-pyran-4-yl)benzenesulfonamide], for which the IC50 was more than 10 µM.

As to `Cc1ccccc1NC(=O)c1ccc(S(=O)(=O)NC(C)C2CCCCC2)cc1` (stereo not shown) [Compound 111, 4-(N-(1-cyclohexylethyl)sulfam-oyl)-N-(o-tolyl)benzamide], the half-inhibitory concentration (IC50) is more than 10 µM.

The test is the same for the next values; noted with them: read-out: Tango Assay IC50, Inhibition of CCR8 Tango cell in vitro.
Take `Cc1ccccc1C(=O)Nc1ccc(S(=O)(=O)Nc2ccc3c(c2)C(=O)N(CCN(C)C)CCO3)c2ccccc12` [Compound 96, N-(4-(N-(4-(2-(dimethylamino)ethyl)-5-oxo-2,3,4,5-tetrahydrobenzo[f][1,4]oxazepin-7-yl)sulfamoyl)naphthalen-1-yl)-2-methylbenzamide]: the IC50 is more than 10 µM.
